# Results as given in US9315475B2 (MERCK SHARP & DOHME CORP., priority 2011, dated 2016).
# Tested on: HIV-1 (H9IIIB strain)
# Assay: Antiviral acute infection assay in cell culture (Spread)
# Type: cell-based
# Settings: Human immunodeficiency virus 1, T-lymphoid, HIV-1 H9IIIB infection of MT-4 human T-lymphoid cells in 10% FBS; mean of at least two independent experiments
# Excerpt: Antiviral Assays in Cell Culture (“Spread”)
# Acute Infection Assay (“Spread”) data were generated using HIV-1 (H9IIIB strain) infection of MT-4 human T-lymphoid cells in 10% FBS, and according to the methods disclosed by J. P. Vacca et al, “L-735,524: An orally bioavailable human immunodeficiency virus type 1 protease inhibitor,” Proc. Natl. Acad. Sci. USA, Vol. 91, pp. 4096-4100 (April 1994).
row,SMILES,EC50
1,"COC(=O)N[C@H](C(=O)Nc1cccc(F)c1CC[C@@H]1CN[C@H](COC(=O)NCC(F)(F)F)CO1)[C@H](c1ccccc1)c1ccc(OC)c(Cl)c1 [Example 109, (βR)-3-Chloro-N-(3-fluoro-2-{2-[(2R,5S)-5-({[(2,2,2-trifluoroethyl)carbamoyl]oxy}methyl)morpholin-2-yl]ethyl}phenyl)-Nα-(methoxycarbonyl)-O-methyl-β-phenyl-L-tyrosinamide]",340 nM
2,"COC(=O)N[C@H](C(=O)Nc1cccc(F)c1CC[C@@H]1CN[C@H](COC(=O)NCC(F)(F)F)CO1)[C@@H](c1ccc(F)cc1)c1ccccc1OC(F)(F)F [Example 111, (βS)-4-Fluoro-N-(3-fluoro-2-{2-[(2R,5S)-5-({[(2,2,2-trifluoroethyl)carbamoyl]oxy}methyl)morpholin-2-yl]ethyl}phenyl)-Nα-(methoxycarbonyl)-β-[2-(trifluoromethoxy)phenyl]-L-phenylalaninamide]",25 nM
3,"COC(=O)N[C@H](C(=O)Nc1cccc(F)c1OC[C@@H]1CN[C@H](COC(N)=O)CO1)[C@@H](c1ccc(F)cc1)c1cccc(F)c1 [Example 117, (βS)—N-[2-({(2S,5S)-5-[(Carbamoyloxy)methyl]morpholin-2-yl}methoxy)-3-fluorophenyl]-4-fluoro-β-(3-fluorophenyl)-Nα-(methoxycarbonyl)-L-phenylalaninamide]",18 nM
4,"COC(=O)N[C@H](C(=O)Nc1cccc(F)c1CC[C@@H]1CN[C@H](COC(N)=O)CO1)[C@@H](c1ccc(F)cc1)c1cccc(F)c1 [Example 118, (βS)—N-[2-(2-{(2R,5S)-5-[(Carbamoyloxy)methyl]morpholin-2-yl}ethyl)-3-fluorophenyl]-4-fluoro-β-(3-fluorophenyl)-Nα-(methoxycarbonyl)-L-phenylalaninamide]",17 nM
5,"NC(=O)OC[C@@H]1CO[C@H](CCc2c(F)cccc2NC(=O)[C@@H](N)[C@@H](c2ccc(F)cc2)c2cccc(F)c2)CN1 [Example 120, (βS)—N-[2-(2-{(2R,5S)-5-[(Carbamoyloxy)methyl]morpholin-2-yl}ethyl)-3-fluorophenyl]-4-fluoro-β-(3-fluorophenyl)-L-phenylalaninamide]",20 nM
6,"N[C@H](C(=O)Nc1cccc(F)c1CC[C@@H]1CN[C@H](COC(=O)N[C@H]2CCCOC2)CO1)C(c1ccc(F)cc1)c1ccc(F)cc1 [Example 122, 4-Fluoro-β-(4-fluorophenyl)-N-(3-fluoro-2-{2-[(2R,5S)-5-({[(3S)-tetrahydro-2H-pyran-3-ylcarbamoyl]oxy}methyl)morpholin-2-yl]ethyl}phenyl)-L-phenylalaninamide]",44 nM
7,"N[C@H](C(=O)Nc1cncc(F)c1CC[C@@H]1CN[C@H](COC(=O)NCC(F)(F)F)CO1)[C@@H](c1ccc(F)cc1)C1CCOCC1 [Example 127, (βR)-4-Fluoro-N-(5-fluoro-4-{2-[(2R,5S)-5-({[(2,2,2-trifluoroethyl)carbamoyl]oxy}methyl)morpholin-2-yl]ethyl}pyridin-3-yl)-β-(tetrahydro-2H-pyran-4-yl)-L-phenylalaninamide]",71 nM
8,"O=C(C[C@@H](c1ccc(F)cc1)c1ccc(C(F)(F)F)nc1)Nc1cncc(F)c1CC[C@@H]1CN[C@H](COC(=O)NCC(F)(F)F)CO1 [Example 133, [(3S,6R)-6-{2-[3-Fluoro-5-({(3S)-3-(4-fluorophenyl)-3-[6-(trifluoromethyl)pyridin-3-yl]propanoyl}amino)pyridin-4-yl]ethyl}morpholin-3-yl]methyl (2,2,2-trifluoroethyl)carbamate]",23 nM
9,"N[C@H](C(=O)Nc1cccc(F)c1CC[C@@H]1CN[C@H](COC(=O)NCC(F)(F)F)CO1)[C@@H](c1ccc(Cl)cc1)c1ccncc1F [Example 136, (βS)-4-Chloro-β-(3-fluoropyridin-4-yl)-N-(3-fluoro-2-{2-[(2R,5S)-5-({[(2,2,2-trifluoroethyl)carbamoyl]oxy}methyl)morpholin-2-yl]ethyl}phenyl)-L-phenylalaninamide]",60 nM

# Continued by falling EC50, values first:
row,EC50,SMILES
1,860 nM,"COC(=O)N[C@H](C(=O)Nc1cccc(F)c1CC[C@@H]1CN[C@H](COC(=O)NCC(F)(F)F)CO1)C(c1ccc(Cl)cc1)c1ccc(Cl)cc1 [Example 108, 4-Chloro-β-(4-chlorophenyl)-N-(3-fluoro-2-{2-[(2R,5S)-5-({[(2,2,2-trifluoroethyl)carbamoyl]oxy}methyl)morpholin-2-yl]ethyl}phenyl)-Nα-(methoxycarbonyl)-L-phenylalaninamide]"
2,320 nM,"CS(=O)(=O)c1ccc([C@@H](CC(=O)Nc2cccc(F)c2CC[C@@H]2CN[C@H](COC(=O)NCC(F)(F)F)CO2)c2cccc(F)c2)cc1 [Example 113, [(3S,6R)-6-{2-[2-Fluoro-6-({(3R)-3-(3-fluorophenyl)-3-[4-(methylsulfonyl)phenyl]propanoyl}amino)phenyl]ethyl}morpholin-3-yl]methyl (2,2,2-trifluoroethyl)carbamate]"
3,200 nM,"COC(=O)N[C@H](C(=O)Nc1cccc(F)c1CC[C@@H]1CN[C@H](COC(=O)NCC(F)(F)F)CO1)[C@@H](c1ccncc1)c1ccc(F)cc1 [Example 112, (βR)-4-Fluoro-N-(3-fluoro-2-{2-[(2R,5S)-5-({[(2,2,2-trifluoroethyl)carbamoyl]oxy}methyl)morpholin-2-yl]ethyl}phenyl)-Nα-(methoxycarbonyl)-β-pyridin-4-yl-L-phenylalaninamide]"
4,91 nM,"N[C@H](C(=O)Nc1cccc(F)c1CC[C@@H]1CN[C@H](COC(=O)NCC(F)(F)F)CO1)[C@@H](c1ccc(F)cc1)C1CCOCC1 [Example 128, (βR)-4-Fluoro-N-(3-fluoro-2-{2-[(2R,5S)-5-({[(2,2,2-trifluoroethyl)carbamoyl]oxy}methyl)morpholin-2-yl]ethyl}phenyl)-β-(tetrahydro-2H-pyran-4-yl)-L-phenylalaninamide]"
5,39 nM,"N[C@H](C(=O)Nc1cccc(F)c1CC[C@@H]1CN[C@H](COC(=O)NCC(F)(F)F)CO1)[C@H](c1ccc(Cl)cc1)c1ccc2c(c1)OCO2 [Example 100, {(3S,6R)-6-[2-(2-{[(3R)-3-(1,3-Benzodioxol-5-yl)-3-(4-chlorophenyl)-L-alanyl]amino}-6-fluorophenyl)ethyl]morpholin-3-yl}methyl (2,2,2-trifluoroethyl)carbamate]"
6,37 nM,"N#Cc1ccc([C@H](c2ccc(F)c(F)c2)[C@H](N)C(=O)Nc2cccc(F)c2CC[C@@H]2CN[C@H](COC(=O)NCC(F)(F)F)CO2)cc1 [Example 102, (βR)-β-(4-Cyanophenyl)-3,4-difluoro-N-(3-fluoro-2-{2-[(2R,5S)-5-({[(2,2,2-trifluoroethyl)carbamoyl]oxy}methyl)morpholin-2-yl]ethyl}phenyl)-L-phenylalaninamide]"
7,30 nM,"N#Cc1ccc([C@@H](CC(=O)Nc2cncc(F)c2CC[C@@H]2CN[C@H](COC(=O)NCC(F)(F)F)CO2)c2ccc(F)c(F)c2)cc1 [Example 115, {(3S,6R)-6-[2-(3-{[(3R)-3-(4-Cyanophenyl)-3-(3,4-difluorophenyl)propanoyl]amino}-5-fluoropyridin-4-yl)ethyl]morpholin-3-yl}methyl (2,2,2-trifluoroethyl)carbamate]"
8,28 nM,"N[C@H](C(=O)Nc1cncc(F)c1CC[C@@H]1CN[C@H](COC(=O)NCC(F)(F)F)CO1)[C@@H](c1ccc(Cl)cc1)c1cccc(OC(F)(F)F)c1 [Example 98, (βS)-β-(4-Chlorophenyl)-N-(5-fluoro-4-{2-[(2R,5S)-5-({[(2,2,2-trifluoroethyl)carbamoyl]oxy}methyl)morpholin-2-yl]ethyl}pyridin-3-yl)-3-(trifluoromethoxy)-L-phenylalaninamide]"
9,28 nM,"COC(=O)N[C@H](C(=O)Nc1cccc(F)c1CC[C@@H]1CN[C@H](COC(=O)NCC(F)(F)F)CO1)[C@@H](c1ccc(Cl)cc1)c1ccncc1F [Example 134, (βS)-4-Chloro-β-(3-fluoropyridin-4-yl)-N-(3-fluoro-2-{2-[(2R,5S)-5-({[(2,2,2-trifluoroethyl)carbamoyl]oxy}methyl)morpholin-2-yl]ethyl}phenyl)-Nα-(methoxycarbonyl)-L-phenylalaninamide]"
10,26 nM,"COC(=O)N[C@H](C(=O)Nc1cncc(F)c1CC[C@@H]1CN[C@H](COC(=O)NCC(F)(F)F)CO1)[C@@H](c1ccc(Cl)cc1)c1ccc2c(c1)OCO2 [Example 104, (βS)-β-1,3-Benzodioxol-5-yl-4-chloro-N-(5-fluoro-4-{2-[(2R,5S)-5-({[(2,2,2-trifluoroethyl)carbamoyl]oxy}methyl)morpholin-2-yl]ethyl}pyridin-3-yl)-Nα-(methoxycarbonyl)-L-phenylalaninamide]"
11,14 nM,"O=C(C[C@@H](c1ccc(Cl)cc1)c1ccc2c(c1)CCO2)Nc1cncc(F)c1CC[C@@H]1CN[C@H](COC(=O)NCC(F)(F)F)CO1 [Example 114, {(3S,6R)-6-[2-(3-{[(3S)-3-(4-Chlorophenyl)-3-(2,3-dihydro-1-benzofuran-5-yl)propanoyl]amino}-5-fluoropyridin-4-yl)ethyl]morpholin-3-yl}methyl (2,2,2-trifluoroethyl)carbamate]"
12,6.9 nM,"COC(=O)N[C@H](C(=O)Nc1cccc(F)c1CC[C@@H]1CN[C@H](COC(=O)NCC(F)(F)F)CO1)[C@@H](c1ccc(Cl)cc1)c1ccc2c(c1)OCO2 [Example 110, (βS)-β-1,3-Benzodioxol-5-yl-4-chloro-N-(3-fluoro-2-{2-[(2R,5S)-5-({[(2,2,2-trifluoroethyl)carbamoyl]oxy}methyl)morpholin-2-yl]ethyl}phenyl)-Nα-(methoxycarbonyl)-L-phenylalaninamide]"
13,6.5 nM,"COC(=O)N[C@H](C(=O)Nc1cncc(F)c1CC[C@@H]1CN[C@H](COC(=O)NCC(F)(F)F)CO1)[C@@H](c1ccc(Cl)cc1)c1cccc(OC(F)(F)F)c1 [Example 106, (βS)-β-(4-Chlorophenyl)-N-(5-fluoro-4-{2-[(2R,5S)-5-({[(2,2,2-trifluoroethyl)carbamoyl]oxy}methyl)morpholin-2-yl]ethyl}pyridin-3-yl)-Nα-(methoxycarbonyl)-3-(trifluoromethoxy)-L-phenylalaninamide]"
